Like-named read-outs stand apart in the source and are kept apart here.
Columns and labels:
[1] = test system: umbilical cord blood cells; experiment: Insulin secretion of differentiated umbilical cord blood cells, insulin ELISA; settings: BP-1-102 added on day 4; primed 6 days, then 3 days in CMRL1066 with 11 mM glucose; supernatant ELISA
[2] = test system: human umbilical cord blood cells; assay type: cell-based
Method: Umbilical cord blood-derived mononuclear cells were freshly isolated using Ficoll-gradient protocol and suspended in a lysis solution (BD Pharmingen) to remove red blood cells.
Differentiation was induced by treating (priming) with putrescine in the same manner as in the method of Example 1.2, except that putrescine was added to a concentration of 1 mM or 5 mM, and the gene expression levels for insulin (INS) and factors (MAFA, NEUROG3) that promote the differentiation into insulin-producing beta cells were measured by performing quantitative real time PCR in the same manner as in the method of Example 1.2.
(§1) Samples were divided into (1) putrescine alone-treated group (5 mM), (2) putrescine (5 mM) and glucosamine (5 mM)-co-treated group, (3) putrescine (5 mM), glucosamine (5 mM), and nicotinamide (10 mM)-co-treated group, and (4) control (non-treated group). Umbilical cord blood cells (prepared in the same manner as in Example 1.3) and mouse bone marrow cells (prepared in the same manner as in Example 1.1) were cultured in suspension to induce the differentiation into insulin-producing cells.
(§2) On day 6 after priming the umbilical cord blood cells or mouse bone marrow cells for differentiation, total RNA was extracted to perform quantitative real-time PCR, similarly to the method of Example 1.2, and the mRNA expression of insulin and beta cell differentiation-related genes (MAFA, PDX1, or NEUROG3) was determined, as shown in FIGS. 4 (in primed umbilical cord blood cells) and 5 (in primed mouse bone marrow cells).
Umbilical cord blood cells were isolated in the same manner as in Example 1.3, and the differentiation effect on culture medium was determined. […] On day 6 after the culture, the expression levels of genes were compared in the cells in which differentiation was induced in the DMEM or CMRL1066 culture medium, respectively, using RT-PCR and quantitative real-time PCR. The conditions for quantitative real-time PCR were the same as in Example 1.2, and RT-PCR was performed with the following steps; 1) initial denaturation of 94° C. for 5 minutes; 2) amplification of 94° C. for 30 seconds, 60° C. for 30 seconds, and 72° C. for 1 minute by repeating the cycle 30 times; 3) final extension of 72° C. for 10 minutes.
Cells were collected on day 6 after the culture to confirm the appearance of insulin-producing cells.

[3] = test system: mouse bone marrow cells; experiment: Differentiation of mouse bone marrow cells into insulin-producing cells, RT-PCR / quantitative real-time PCR; assay type: cell-based; settings: for insulin expression compared to the control: 10 mM each, 6 days, DMEM
Method: Mouse bone marrow cells were isolated from 8-week-old male C57BL/6 mice (Orientbio Inc.) in the same manner as in Example 1.1. Bone marrow cells in DMEM culture medium (Dulbecco's Modified Eagle's Medium) (standard medium) containing 5.5 mM glucose, 10% FBS, and 1% antibiotics were seeded at 5×10^6 cells/ml into a 12-well non-coated plate, treated with glucosamine (GlcN) and putrescine (Put) to a concentration of 10 mM each or together, and cultured for 6 days in suspension for differentiation.
To investigate whether or not insulin-producing cells appeared, the gene expression levels of insulin (INS), MAFA, PDX-1, and NEUROG3 were measured by a quantitative real-time PCR method, as in the method of Example 1.2, which are shown in FIG. 3.
as §1, §2

[4] = test system: human bone marrow cells; settings: 5 mM putrescine, 6 days, DMEM; compared to control without putrescine
[5] = added to 5 mM putrescine, 5 mM glucosamine, 10 mM nicotinamide in CMRL1066, JSI-124 0.1 μM, CPT 1 μM, BP-1-102 10 μM, day 6

## CN(CC(=O)N(Cc1ccc(C2CCCCC2)cc1)c1ccc(C(=O)O)c(O)c1)S(=O)(=O)c1c(F)c(F)c(F)c(F)c1F [BP-1-102]
[1]
  insulin secretion compared to only three differentiation-inducing factors (glucosamine, putrescine, and nicotinamide): ≥ 10 fold
[2]
  mRNA expression levels of insulin and beta cell differentiation-related genes, order among STAT3 inhibitors: significantly increased in the order of CPT <JSI-124<BP-1-102
  mRNA expression of insulin compared to treatment only with glucosamine, putrescine, and nicotinamide: ≥ 3 fold

## C[C@H]1COC2=C1C(=O)C(=O)c1c2ccc2c1CCCC2(C)C [CPT]
[2]; [5]
  mRNA expression levels of insulin and beta cell differentiation-related genes, order among STAT3 inhibitors: significantly increased in the order of CPT <JSI-124<BP-1-102

## CC(C)(O)/C=C/C(=O)[C@](C)(O)C1[C@H](O)C[C@@]2(C)[C@@H]3CC=C4C(C=C(O)C(=O)C4(C)C)[C@]3(C)C(=O)C[C@]12C (stereo partly drawn) [JSI-124]
[3]; 100 nM added on day 4 after the culture, compared to treatment at other time points (day 0, 2)
  mRNA expression levels of insulin (INS) and beta cell differentiation-related genes (PDX1, NEUROG3, or NEUROD1): significantly increased
[3]; STAT3 inhibitor 100 nM added on day 0, 2 or 4 to glucosamine, putrescine and nicotinamide in CMRL 1066, collected day 6
  expression levels of genes promoting differentiation into insulin-producing cells: increased
[2]; [5]
  mRNA expression levels of insulin and beta cell differentiation-related genes, order among STAT3 inhibitors: significantly increased in the order of CPT <JSI-124<BP-1-102

## N[C@H]1C(O)O[C@H](CO)[C@@H](O)[C@@H]1O (stereo partly drawn) [glucosamine]
[3]
  insulin expression compared to the control: 2 fold

## NCCCCN [putrescine, 1,4-diaminobutane]
[3]
  insulin expression compared to the control: 4.3 fold
[4]
  mRNA expression of insulin (INS), MAFA, PDX1, and NEUROG3: significantly increased
[2]; 5 mM putrescine, 6 days, DMEM, compared to control cells without putrescine
  mRNA expression of beta cell-specific genes (INS, MAFA, and NEUROG3): significantly increased
[2]; putrescine at a concentration of 5 mM or more (0.1 to 20 mM tested), 6 days
  gene expression levels for insulin and the factors that promote the beta cell differentiation: significantly increased

Reference: US20230088644A1, “COMPOSITION FOR INDUCING DIFFERENTIATION INTO INSULIN-PRODUCING CELLS, AND USE THEREOF” (SEOUL NATIONAL UNIVERSITY R&DB FOUNDATION, priority 2020, published 2023)
